TGI and GI50 data for 15 compounds are collected here from PubChem BioAssay (NCI).

Structures are written as SMILES.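 96-well plates; 48 h exposure; 5 concentrations. Endpoints by linear interpolation between flanking doses. Not reached: highest tested concentration assigned. GI50 is the concentration that inhibits growth by half. TGI is the concentration that stops growth completely.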

Among the test systems are DLD-1 colon; DMS 114 small cell lung; XF 498 CNS; OVCAR-4 ovarian; 786-0 renal; MDA-MB-231 breast; NCI/ADR-RES ovarian; BT-549 breast; MCF7 breast; KM20L2 colon.
Holding throughout (assay): inhibition of tumour cell growth, NCI panel, 48 h

`O=C1OC(c2ccccc2)=N/C1=C\c1cccc2ccccc12`: the TGI in the assay on DLD-1 colon, with DMS 114 small cell lung, with XF 498 CNS, in the assay on OVCAR-4 ovarian and with 786-0 renal was above 100 µM in each case.

As to `COC(=O)C1=CNC=C(C(=O)OC)C1C1=CC(=O)C(C)=CC1=O`, the GI50 in the assay with MDA-MB-231 breast was 2.78 µM; with NCI/ADR-RES ovarian, 16.5 µM; with BT-549 breast, 18.2 µM; with OVCAR-4 ovarian, 20.7 µM; with MCF7 breast, 16.7 µM; in the assay with 786-0 renal it was 4.3 µM. Further, the TGI in the assay on MDA-MB-231 breast was determined as 19.1 µM; in the assay on NCI/ADR-RES ovarian, 31.2 µM; in the assay on BT-549 breast it was 34.3 µM; in the assay on OVCAR-4 ovarian, 61.7 µM; in the assay with MCF7 breast, 47.5 µM; in the assay with 786-0 renal, 11.5 µM.

As for `COC(=O)[C@@H](C)CNS(=O)(=O)N(c1cc(C(F)(F)F)cc(C(F)(F)F)c1)C1CCN(Cc2ccc(F)cc2)CC1`, the GI50 in the assay on MDA-MB-231 breast is 12.7 µM; with NCI/ADR-RES ovarian, 10.7 µM; in the assay on BT-549 breast, 8.34 µM; in the assay on OVCAR-4 ovarian, 11.9 µM; in the assay with MCF7 breast, 6.91 µM; in the assay on 786-0 renal, 11.2 µM. The TGI with MDA-MB-231 breast was 29.3 µM; in the assay with NCI/ADR-RES ovarian, 23.4 µM; in the assay on BT-549 breast it was 22.9 µM; in the assay with OVCAR-4 ovarian it was 24.7 µM; in the assay on MCF7 breast, 21.9 µM; with 786-0 renal, 24 µM.

Take `COC1=CC(=O)c2nc(-c3cccc(C)n3)[nH]c2C1=O`: the GI50 with MDA-MB-231 breast is 27.1 µM; in the assay with NCI/ADR-RES ovarian, 32.5 µM; in the assay on BT-549 breast, 17.8 µM; in the assay on OVCAR-4 ovarian, 20.4 µM; in the assay with MCF7 breast, 16.6 µM; in the assay with 786-0 renal, 19.8 µM. Further, the TGI was 66.2 µM with MDA-MB-231 breast; above 100 µM with NCI/ADR-RES ovarian; 36.5 µM in the assay with BT-549 breast; 50.3 µM in the assay on OVCAR-4 ovarian; 35.7 µM in the assay with MCF7 breast; 46.3 µM in the assay with 786-0 renal.

For the compound `Nn1c(=O)n(Cc2ccccc2)n(-c2ccccc2)c1=O`, the TGI with DLD-1 colon, in the assay on XF 498 CNS, in the assay on OVCAR-4 ovarian and in the assay with 786-0 renal was above 100 µM throughout.

`C[C@@H]1CC(=O)C2CCCC1C2=O` (stereo partly drawn): the TGI with DLD-1 colon, with KM20L2 colon, in the assay with DMS 114 small cell lung, with OVCAR-4 ovarian and with 786-0 renal was above 100 µM in each case.

For the compound `CCOc1ccccc1NC(=O)CC(C(=O)OC)C(=O)C(=O)OC` (stereo not drawn), the TGI in the assay with KM20L2 colon, with DMS 114 small cell lung, in the assay with OVCAR-4 ovarian and with 786-0 renal was above 100 µM each time.

In the case of `NS(=O)(=O)c1ccc(N=Nc2c(O)[nH]c3ccc(-c4cnco4)cc23)cc1`, the GI50 in the assay with MDA-MB-231 breast is above 25 µM; in the assay with NCI/ADR-RES ovarian it was above 25 µM; in the assay with BT-549 breast, 18 µM; with OVCAR-4 ovarian, above 25 µM; in the assay with MCF7 breast, 11.8 µM; in the assay with 786-0 renal, above 25 µM. Further, the TGI with MDA-MB-231 breast, in the assay with NCI/ADR-RES ovarian, with BT-549 breast, in the assay with OVCAR-4 ovarian, in the assay with MCF7 breast and in the assay on 786-0 renal was above 25 µM in each case.

As for `Cn1c2c(c3ccccc31)CC1c3c(c4ccccc4n3C)CC21` (stereo not drawn), the TGI in the assay on MDA-MB-231 breast, in the assay on NCI/ADR-RES ovarian, with BT-549 breast, in the assay on OVCAR-4 ovarian, in the assay on MCF7 breast and in the assay on 786-0 renal was above 100 µM each time.

`Oc1cccnc1CN1CCCCC1`: the TGI in the assay with MDA-MB-231 breast, with NCI/ADR-RES ovarian, in the assay on BT-549 breast, in the assay on OVCAR-4 ovarian, in the assay with MCF7 breast and with 786-0 renal was above 100 µM in each case.

For `COc1cc2ncnc(Nc3ccc(C)c(O)c3)c2cc1OC`, the GI50 is 17.1 µM in the assay with MDA-MB-231 breast; 16.4 µM in the assay on NCI/ADR-RES ovarian; 12.4 µM in the assay on BT-549 breast; 9.91 µM in the assay with OVCAR-4 ovarian; above 25 µM with MCF7 breast; 11.4 µM with 786-0 renal. The TGI with MDA-MB-231 breast, in the assay with NCI/ADR-RES ovarian, in the assay on BT-549 breast, with OVCAR-4 ovarian, in the assay on MCF7 breast and in the assay on 786-0 renal was above 25 µM each time.

`COc1ccc(C(=O)C(C(=O)CCC(=O)Nc2cccc(Cl)c2)c2ccc(OC)cc2)cc1` (stereo not drawn): the TGI in the assay on DLD-1 colon, in the assay on KM20L2 colon, in the assay with XF 498 CNS, with OVCAR-4 ovarian and with 786-0 renal was above 100 µM in each case.

Regarding `CC(C)C(Nc1c2ccccc2nc2ccccc12)C(=O)O` (stereo not drawn), the TGI in the assay on DLD-1 colon was above 100 µM; with KM20L2 colon it was above 100 µM; in the assay with XF 498 CNS, above 100 µM; in the assay on OVCAR-4 ovarian, 85.3 µM; with 786-0 renal it was above 100 µM.

Take `O=C(NC1=CC(=O)c2ccccc2C1=O)c1ccccc1`: the GI50 with MDA-MB-231 breast was 0.421 µM; with NCI/ADR-RES ovarian, 1.26 µM; with BT-549 breast it was 0.706 µM; in the assay on OVCAR-4 ovarian, 1.04 µM; in the assay with MCF7 breast, 1.05 µM; with 786-0 renal it was 3.01 µM. The TGI in the assay with MDA-MB-231 breast is 1.76 µM; in the assay with NCI/ADR-RES ovarian it was 14.9 µM; with BT-549 breast, 14.9 µM; with OVCAR-4 ovarian, 2.26 µM; in the assay on MCF7 breast, 2.76 µM; in the assay on 786-0 renal, 17.2 µM.

Turning to `COc1nc2ccccc2cc1-c1nc2c(cnn2-c2ccc(Br)cc2)c(=O)[nH]1`, the GI50 with MDA-MB-231 breast was 0.133 µM; with NCI/ADR-RES ovarian it was 0.0186 µM; in the assay on BT-549 breast, 0.156 µM; with MCF7 breast, 0.0201 µM; with 786-0 renal it was 0.0403 µM. For the same compound, the TGI was above 27.4 µM in the assay on MDA-MB-231 breast; 1.58 µM with NCI/ADR-RES ovarian; above 25.1 µM in the assay with BT-549 breast; above 50 µM in the assay with OVCAR-4 ovarian; above 50 µM with MCF7 breast; 8.6 µM in the assay on 786-0 renal.
